Data as given in patent publication US9144239B2, “Macrocyclic picolinamides as fungicides” (DOW AGROSCIENCES LLC, priority 2012, dated 2015).
Where two headings read alike, the source gives them in different places.

Assays:
Assay type in all cases: in vivo
[1] = system: Leptosphaeria nodorum; assay: Fungicidal activity: wheat glume blotch (LEPTNO); details: Parastagonospora nodorum, 24 h, 1 Day Protectant, read-out: Disease Control LEPTNO 1 DP
Description: Technical grades of materials were dissolved in acetone, which were then mixed with nine volumes of water containing 110 ppm Triton X-100. The fungicide solutions were applied onto wheat seedlings using an automated booth sprayer to run-off. All sprayed plants were allowed to air dry prior to further handling. Wheat plants (variety Yuma) were grown from seed in a greenhouse in 50% mineral soil/50% soil-less Metro mix until the first leaf was fully emerged, with 7-10 seedlings per pot. These plants were inoculated with an aqueous spore suspension of Septoria tritici either prior to or after fungicide treatments. After inoculation the plants were kept in 100% relative humidity (one day in a dark dew chamber followed by two to three days in a lighted dew chamber at 20° C.) to permit spores to germinate and infect the leaf. The plants were then transferred to a greenhouse set at 20° C. for disease to develop. When disease symptoms were fully expressed on the 1st leaves of untreated plants, infection levels were assessed on a scale of 0 to 100 percent disease severity. Percent disease control was calculated using the ratio of disease severity on treated plants relative to untreated plants. Evaluation of Fungicidal Activity: Wheat Glume Blotch (Leptosphaeria nodorum; Bayer Code […]) Wheat plants (variety Yuma) were grown from seed in a greenhouse in 50% mineral soil/50% soil-less Metro mix until the first leaf was fully emerged, with 7-10 seedlings per pot. These plants were inoculated with an aqueous spore suspension of Leptosphaeria nodorum 24 hr after fungicide treatments. After inoculation the plants were kept in 100% relative humidity (one day in a dark dew chamber followed by two days in a lighted dew chamber at 20° C.) to permit spores to germinate and infect the leaf. The plants were then transferred to a greenhouse set at 20° C. for disease to develop. Fungicide formulation, application and disease assessment followed the procedures as described in the Example A.

[2] = system: Magnaporthe grisea; anamorph: Pyricularia oryzae; assay: whole plant or invertebrate; details: 24 h, read-out: Disease Control PYRIOR 1 DP
[3] = system: Uncinula necator; assay: Fungicidal activity: grape powdery mildew (UNCINE); details: Erysiphe necator, 24 h, 1 Day Protectant, read-out: Disease Control UNCINE 1 DP
Description: Technical grades of materials were dissolved in acetone, which were then mixed with nine volumes of water containing 110 ppm Triton X-100. The fungicide solutions were applied onto wheat seedlings using an automated booth sprayer to run-off. All sprayed plants were allowed to air dry prior to further handling. Wheat plants (variety Yuma) were grown from seed in a greenhouse in 50% mineral soil/50% soil-less Metro mix until the first leaf was fully emerged, with 7-10 seedlings per pot. These plants were inoculated with an aqueous spore suspension of Septoria tritici either prior to or after fungicide treatments. After inoculation the plants were kept in 100% relative humidity (one day in a dark dew chamber followed by two to three days in a lighted dew chamber at 20° C.) to permit spores to germinate and infect the leaf. The plants were then transferred to a greenhouse set at 20° C. for disease to develop. When disease symptoms were fully expressed on the 1st leaves of untreated plants, infection levels were assessed on a scale of 0 to 100 percent disease severity. Percent disease control was calculated using the ratio of disease severity on treated plants relative to untreated plants. Evaluation of Fungicidal Activity: Grape Powdery Mildew (Uncinula necator; Bayer Code […]) Grape seedlings (variety Carignane) were grown in soil-less Metro mix, with one plant per pot, and used in the test when approximately one month old. Plants were inoculated 24 hr after fungicide treatment by shaking spores from infected leaves over test plants. Plants were maintained in a greenhouse set at 20° C. until disease was fully developed. Fungicide formulation, application and disease assessment on the sprayed leaves followed the procedures as described in the Example A.

[4] = system: Blumeria graminis f.sp. hordei; synonym: Erysiphe graminis f.sp. hordei; assay: Fungicidal activity: barley powdery mildew (ERYSGH); details: 24 h, 1 Day Protectant, read-out: Disease Control ERYSGH 1DP
Description: Technical grades of materials were dissolved in acetone, which were then mixed with nine volumes of water containing 110 ppm Triton X-100. The fungicide solutions were applied onto wheat seedlings using an automated booth sprayer to run-off. All sprayed plants were allowed to air dry prior to further handling. Wheat plants (variety Yuma) were grown from seed in a greenhouse in 50% mineral soil/50% soil-less Metro mix until the first leaf was fully emerged, with 7-10 seedlings per pot. These plants were inoculated with an aqueous spore suspension of Septoria tritici either prior to or after fungicide treatments. After inoculation the plants were kept in 100% relative humidity (one day in a dark dew chamber followed by two to three days in a lighted dew chamber at 20° C.) to permit spores to germinate and infect the leaf. The plants were then transferred to a greenhouse set at 20° C. for disease to develop. When disease symptoms were fully expressed on the 1st leaves of untreated plants, infection levels were assessed on a scale of 0 to 100 percent disease severity. Percent disease control was calculated using the ratio of disease severity on treated plants relative to untreated plants. Evaluation of Fungicidal Activity: Barley Powdery Mildew (Blumeria graminis f.sp. hordei; Synonym: Erysiphe graminis f.sp. hordei; Bayer Code […]) Barley seedlings (variety Harrington) were propagated in soil-less Metro mix, with each pot having 8 to 12 plants, and used in the test when first leaf was fully emerged. Test plants were inoculated by dusting with infected stock plants 24 hr after fungicide treatments. After inoculation the plants were kept in a greenhouse set at 20° C. for disease to develop. Fungicide formulation, application and disease assessment on the sprayed leaves followed the procedures as described in the Example A.

[5] = system: Mycosphaerella graminicola; anamorph: Septoria tritici; assay: Fungicidal activity: leaf blotch of wheat (SEPTTR), wheat seedlings; details: Zymoseptoria tritici, 100 ppm, wheat
Procedure, shortened: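 Compounds in acetone were diluted with nine volumes of water containing 110 ppm Triton X-100 and sprayed to run-off on Yuma wheat seedlings at first-leaf stage. Septoria tritici spores were inoculated before or after treatment, followed by dew chambers at 100% RH and 20 °C, then greenhouse at 20 °C. Severity (0–100%) was scored once untreated plants were fully diseased; control was calculated relative to untreated plants.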

[6] = 24 h, 1 Day Protectant, read-out: Disease Control SEPTTR 1DP
[7] = 72 h, 3 Day Curative, read-out: Disease Control SEPTTR 3DC

SMILES | pest or weed control at 100 ppm [1] | pest or weed control at 100 ppm [2] | pest or weed control at 100 ppm [3] | pest or weed control at 100 ppm [4] | pest or weed control at 100 ppm [5, 6] | pest or weed control at 100 ppm [5, 7]
COc1ccnc(C(=O)N[C@H]2COC[C@H](Oc3ccc(F)cc3)[C@@H](Oc3ccc(F)cc3)[C@H](C)OC2=O)c1OC(C)=O [Compound 229, 2-(((3S,7S,8S,9S)-7,8-bis(4-fluorophenoxy)-9-methyl-2-oxo-1,5-dioxonan-3-yl)carbamoyl)-4-methoxypyridin-3-yl acetate] | 80 to 100% | 80 to 100% | 80 to 100% | 0 to 80% | – | –
CCCCO[C@H]1COC[C@H](NC(=O)c2nccc(OC)c2OCOC(C)=O)C(=O)O[C@@H](C)[C@@H]1OCC(F)F [Compound 55] | 80 to 100% | 80 to 100% | 0 to 80% | – | 80 to 100% | 80 to 100%
COc1ccnc(C(=O)N[C@H]2COC[C@H](OCCCc3ccccc3)[C@@H](OCCCc3ccccc3)[C@H](C)OC2=O)c1OCOC(C)=O [Compound 60] | 80 to 100% | 80 to 100% | – | – | 80 to 100% | 0 to 80%
COc1ccnc(C(=O)N[C@H]2COC[C@H](OCC(C)C)[C@@H](Oc3ccccc3)[C@H](C)OC2=O)c1OCOC(C)=O [Compound 85] | 80 to 100% | 80 to 100% | 80 to 100% | 0 to 80% | 80 to 100% | 80 to 100%
COc1ccnc(C(=O)N[C@H]2COC[C@H](Oc3ccccc3)[C@@H](OCC(C)C)[C@H](C)OC2=O)c1OCOC(C)=O [Compound 86] | 80 to 100% | 80 to 100% | 80 to 100% | 0 to 80% | 80 to 100% | 80 to 100%
COc1ccnc(C(=O)N[C@H]2COC[C@H](OC)[C@@H](OC)[C@H](C)OC2=O)c1OCOC(C)=O [Compound 65] | 0 to 80% | – | 0 to 80% | – | – | 0 to 80%
CCC(C)(C)O[C@H]1COC[C@H](NC(=O)c2nccc(OC)c2OCOC(C)=O)C(=O)O[C@@H](C)[C@@H]1OCC(C)C [Compound 78] | 80 to 100% | 80 to 100% | 80 to 100% | 0 to 80% | 80 to 100% | 80 to 100%
CCCO[C@H]1[C@H](C)OC(=O)[C@@H](NC(=O)c2nccc(OC)c2OCOC(C)=O)COC[C@@H]1Oc1ccccc1 [Compound 222] | – | 80 to 100% | – | – | 80 to 100% | 80 to 100%
COc1ccnc(C(=O)N[C@H]2COC[C@H](OC(=O)C(C)C)[C@@H](OC(=O)C(C)C)[C@H](C)OC2=O)c1OCOC(C)=O [Compound 57] | 0 to 80% | 80 to 100% | 0 to 80% | 0 to 80% | 80 to 100% | 80 to 100%
COc1ccnc(C(=O)N[C@H]2COC[C@H](OCC(C)C)[C@@H](OC3CCCCC3)[C@H](C)OC2=O)c1OCOC(C)=O [Compound 77] | 80 to 100% | 80 to 100% | 80 to 100% | 0 to 80% | 80 to 100% | 80 to 100%
COc1ccnc(C(=O)N[C@H]2COC[C@H](Oc3ccc(F)cc3)[C@@H](Oc3ccc(F)cc3)[C@H](C)OC2=O)c1OCOC(C)=O [Compound 231] | 80 to 100% | 80 to 100% | 80 to 100% | 0 to 80% | – | –
COc1ccnc(C(=O)N[C@H]2COC[C@H](OCC(C)C)[C@@H](OCC(C)C)[C@H](C)OC2=O)c1OCOC(C)=O [Compound 3, (2-((3S,7S,8S,9S)-7,8-diisobutoxy-9-methyl-2-oxo-1,5-dioxonan-3-ylcarbamoyl)-4-methoxypyridin-3-yloxy)methyl] | 80 to 100% | 80 to 100% | 80 to 100% | 80 to 100% | 80 to 100% | 80 to 100%
COc1ccnc(C(=O)N[C@H]2COC[C@H](OCCCC(F)(F)F)[C@@H](OCCCC(F)(F)F)[C@H](C)OC2=O)c1OCOC(C)=O [Compound 68] | 80 to 100% | 80 to 100% | 0 to 80% | 0 to 80% | 80 to 100% | 80 to 100%
COc1ccnc(C(=O)N[C@H]2COC[C@H](Oc3ccccc3)[C@@H](Oc3ccccc3)[C@H](C)OC2=O)c1OCOC(C)=O [Compound 84] | 80 to 100% | 80 to 100% | 0 to 80% | 0 to 80% | 80 to 100% | 80 to 100%
COc1ccnc(C(=O)N[C@H]2COC[C@H](OCC(C)C)[C@@H](OCC(C)C)[C@H](C)OC2=O)c1OCOC(=O)C(C)C [Compound 2] | – | – | – | 80 to 100% | 80 to 100% | 80 to 100%
COc1ccnc(C(=O)NC2COC[C@H](OCc3ccccc3)[C@@H](OCc3ccccc3)[C@H](C)OC2=O)c1OCOC(C)=O (some centres unmarked) [Compound 12] | 80 to 100% | 80 to 100% | 0 to 80% | 0 to 80% | 80 to 100% | 80 to 100%
CCCCO[C@H]1COC[C@H](NC(=O)c2nccc(OC)c2OCOC(C)=O)C(=O)O[C@@H](C)[C@@H]1OCCOC [Compound 54] | 80 to 100% | 0 to 80% | 0 to 80% | 0 to 80% | 0 to 80% | 0 to 80%
CCCO[C@H]1COC[C@H](NC(=O)c2nccc(OC)c2OCOC(C)=O)C(=O)O[C@@H](C)[C@@H]1Oc1ccccc1 [Compound 221] | – | 80 to 100% | – | – | 80 to 100% | 80 to 100%
